Reference: publication PMC4521866 (PLoS ONE, 2015)

Test: Solubility and structural stability of peptides
Format: physicochemical
Details: effect of adding HR2 hydrophilic residues to the LK21 N-terminus; qualitative

Compound	solubility and structural stability
CC[C@H](C)[C@H](NC(=O)[C@H](Cc1ccc(O)cc1)NC(=O)[C@H](Cc1c[nH]c2ccccc12)NC(=O)[C@H](CC(C)C)NC(=O)[C@H](Cc1c[nH]c2ccccc12)NC(=O)[C@H](CC(N)=O)NC(=O)[C@@H](NC(=O)[C@@H](NC(=O)[C@H](CC(N)=O)NC(=O)[C@H](Cc1ccccc1)NC(=O)[C@H](Cc1c[nH]c2ccccc12)NC(=O)[C@H](CC(N)=O)NC(=O)[C@H](Cc1c[nH]c2ccccc12)NC(=O)[C@H](CC(C)C)NC(=O)[C@H](CO)NC(=O)[C@H](C)NC(=O)[C@H](Cc1c[nH]c2ccccc12)NC(=O)[C@H](CCCCN)NC(=O)[C@H](CC(=O)O)NC(=O)[C@H](CC(C)C)NC(=O)[C@H](CCC(=O)O)NC(=O)[C@H](CC(C)C)NC(=O)[C@H](CC(C)C)NC(=O)[C@H](CCC(=O)O)NC(=O)[C@H](CCC(N)=O)NC(=O)[C@H](CCC(=O)O)NC(=O)[C@H](CC(N)=O)NC(=O)[C@H](CCCCN)NC(=O)[C@H](CCC(=O)O)NC(C)=O)[C@@H](C)CC)[C@@H](C)O)C(=O)N[C@@H](CCCCN)C(N)=O [EK30]	greatly enhanced
CC[C@H](C)[C@H](NC(=O)[C@H](Cc1ccc(O)cc1)NC(=O)[C@H](Cc1c[nH]c2ccccc12)NC(=O)[C@H](CC(C)C)NC(=O)[C@H](Cc1c[nH]c2ccccc12)NC(=O)[C@H](CC(N)=O)NC(=O)[C@@H](NC(=O)[C@@H](NC(=O)[C@H](CC(N)=O)NC(=O)[C@H](Cc1ccccc1)NC(=O)[C@H](Cc1c[nH]c2ccccc12)NC(=O)[C@H](CC(N)=O)NC(=O)[C@H](Cc1c[nH]c2ccccc12)NC(=O)[C@H](CC(C)C)NC(=O)[C@H](CO)NC(=O)[C@H](C)NC(=O)[C@H](Cc1c[nH]c2ccccc12)NC(=O)[C@H](CCCCN)NC(=O)[C@H](CC(=O)O)NC(=O)[C@H](CC(C)C)NC(=O)[C@H](CCC(=O)O)NC(=O)[C@H](CC(C)C)NC(=O)[C@H](CC(C)C)NC(=O)[C@H](CCC(=O)O)NC(=O)[C@H](CCC(N)=O)NC(C)=O)[C@@H](C)CC)[C@@H](C)O)C(=O)N[C@@H](CCCCN)C(N)=O [QK26]	greatly enhanced
Ac-EESQNQQEKNEQELLELDKWASLWNWFNITNWLWYIK-NH2 [EK37]	greatly enhanced
